The structures appear in SMILES notation.

These results are taken from publication PMC6789456, “Ursolic Acid Derivatives as Potential Agents Against Acanthamoeba Spp” (Pathogens, 2019).

Data set [1] has as its system Acanthamoeba castellanii Neff. As to the kind of experiment: In vitro effect against the trophozoite stage, Alamar Blue assay. It counts as cell-based. The settings on record: for IC50: trophozoites, Alamar blue, 96 h, mean ± SD; for IC90: concentration used in the double-stain assay, A. castellanii Neff trophozoites. The procedure: (§1) The anti-Acanthamoeba activity of molecules was evaluated against the Acanthamoeba castellanii Neff (ATCC 30010) type strain from the American Type Culture Collection and Acanthamoeba griffini obtained in previous studies. Those strains were grown axenically in Peptone Yeast Glucose (PYG) medium (0.75% (w/v) proteose peptone, 0.75% (w/v) yeast extract, and 1.5% (w/v) glucose) containing 40 μg of gentamicin ml−1 (Biochrom AG, Cultek, Granollers, Barcelona, Spain).
(§2) The anti-Acanthamoeba activities of the compounds were determined by the Alamar Blue assay as previously described. Briefly, Acanthamoeba strains were seeded in duplicate on a 96-well microtiter plate with 50 μL from a stock solution of 10^4 cells mL^−1. Amoebae were allowed to adhere for 15 min and 50 μL of serial dilution series of the eye drop solution was added. Finally, the Alamar Blue assay reagent (Bioresource, Europe, Nivelles, Belgium) was added into each well at an amount equal to 10% of the medium volume. The plates were then incubated for 96 h at 28 °C with a slight agitation and the emitted fluorescence was measured with an Enspire microplate reader (PerkinElmer, Massachusetts, USA) at 570/585 nm.
For orientation: The colour change of resazurin is a common sign of viable cells or microbes.

Another data set concerns Acanthamoeba griffini. The description is as above. The format is cell-based. The settings on record: 96 h, trophozoites, mean ± SD. On the procedure: as §1, §2
Data set [2] can be described thus: Cytotoxicity, Alamar Blue assay. The format is cell-based. The settings on record: mouse, J774.A1 macrophage cell line (ATCC TIB-67), J774.A1, 24 h, mean ± SD, >100 if inhibition did not reach 50% at the highest concentration, read-out: Murine Macrophages CC50. On the procedure:
Cytotoxicity of the selected compounds was evaluated after 24 h incubation of murine macrophage J774.A1 cell line (ATCC # TIB-67) with different concentrations of the tested compounds at 37 °C in a 5% CO2 humidified incubator. The viability of the macrophages was determined with the Alamar Blue assay as previously described.

For another data set, the system named is Acanthamoeba spp. cysts. As to the kind of experiment: In vitro effect against the cyst stage, Alamar Blue assay. The format is cell-based. The settings on record: both strains, viability of cysts. The procedure: The cysticidal activity was determined by the Alamar Blue assay at 144 h and confirmed visually by inverted microscopy. Cysts of both strains were prepared as described by Lorenzo-Morales et al. (2008). Briefly, trophozoite were transferred from PYG medium based cultures (trophozoite medium) to Neff´s encystment medium (NEM; 0.1 M KCl, 8 mM MgSO4·7H2O, 0.4 mM CaCl2·2H2O, 1 mM NaHCO3, and 20 mM ammediol (2-amino-2-methyl-1,3-propanediol; Sigma Aldrich Chemistry Ltd., Madrid, Spain), pH 8.8, at 25 °C) and were cultured in this medium with gentle shaking for a week in order to obtain mature cysts. After that, mature cysts were harvested and washed twice using the PYG medium.
A serial dilution of the tested molecules was made in PYG. The in vitro susceptibility assay was performed in sterile 96-well microtiter plates (Corning™). To these wells the drug concentration to be tested and 5 × 10^4 mature cysts of Acanthamoeba/ml were added. The final volume was 100 μL in each well. After 7 days of incubation with the drugs, the plate was centrifuged at 3000 rpm for 10 min. […] Finally, 10 μL of the Alamar Blue assay reagent (Biosource, Europe, Nivelles, Belgium) was placed into each well, and the plates were then incubated for 144 h at 28 °C with slight agitation and the emitted fluorescence was periodically examined with an Enspire microplate reader (PerkinElmer, Waltham, MA, USA) at 570/585 nm.

Data set [3] relates to Acanthamoeba castellanii Neff trophozoite. As to the kind of experiment: Double-stain assay (Hoechst 33342/PI) for programmed cell death. It counts as cell-based. The settings on record: treated with IC90, 24 h; for Propidium Iodide (PI) stain: data not shown. The procedure: A double-stain apoptosis detection kit (Hoechst 33342/PI; GenScript, Piscataway, NJ, USA) and an inverted confocal microscope (Leica DMI 4000B) were used. The experiment was carried out by following the manufacturer’s recommendations, and 10^5 cells/well were incubated in a 24-well plate for 24 h with the previously calculated IC90. The double-staining pattern allows the identification of three groups in a cellular population: Live cells will show only a low level of fluorescence, cells undergoing PCD will show a higher level of blue fluorescence (as chromatin condenses), and dead cells will show low-blue and high-red fluorescence (as the propidium iodide stain enters the nucleus).

Data set [4] has as its system Acanthamoeba castellanii Neff. As to the kind of experiment: Mitochondrial membrane potential, JC-1. The settings on record: treated with IC90, 24 h; for decrease of mitochondrial membrane potential (ΔΨm): ratio of fluorescence 590/530 nm. It counts as cell-based. On the procedure:
The collapse of an electrochemical gradient across the mitochondrial membrane during apoptosis was detected with the JC-1 mitochondrial membrane potential detection kit (Cell Technology). After being treated with IC90 of the test solution for 24 h, the cells were centrifuged (1000 r.p.m. × 10 min) and resuspended in JC-1 buffer. After that, 100 µL of each treated culture was added to a black 96 well plate (PerkinElmer) then 10 µL of JC-1 was added and incubated at 26 °C for 30 min. Analysis for the mean green and red fluorescence intensity was done using an Enspire microplate reader (PerkinElmer, Waltham, MA, USA) after 30 minutes. As well as images were taken on an EVOS fluorescence microscope from the Advanced Microscopy Group (AMG). The staining pattern allows the identification of two groups in a cellular population: Live cells will show only red fluorescence; and cells with low mitochondrial potential, (undergoing PCD) will show a higher level of green and red fluorescence.

In a further data set the test system is Acanthamoeba Neff. As to the kind of experiment: Intracellular ROS production, CellROX Deep Red staining. The format is cell-based, Acanthamoeba castellanii. The settings on record: treated with IC90, 24 h, vs negative control. On the procedure:
The generation of intracellular ROS was detected using the CellROX® Deep Red fluorescent probe (Invitrogen). The cells were treated with IC90 of both 5 and 7 for 24 h and exposed to CellROX® Deep Red (5 μM, 30 min) at 26 °C in the dark.

Data set [5] can be described thus: Solubility (comparison in words). It counts as physicochemical. The settings on record: compared to the origin compound 1 (ursolic acid).
The test system of data set [6] is murine macrophage J774.A1 cell line. As to the kind of experiment: Cytotoxicity, Alamar Blue assay. The format is cell-based. The settings on record: 50 µM, J774A.1, inverted microscopy, compared to 1.

The IC50 is the concentration at which inhibition is half-maximal. Higher therefore signals a need for much substance. Usually CC50 stands for the concentration that lowers cell viability or growth by half. With `COC(=O)[C@]12CC[C@@H](C)[C@H](C)C1C1=CCC3[C@@]4(C)CC[C@H](OC(C)=O)C(C)(C)C4CC[C@@]3(C)[C@]1(C)CC2` (some centres unmarked) [Compound 6], the IC50 worked out at 37.1 ± 1.3 µM in data set [1] and 9.1 ± 1 µM in the data set with Acanthamoeba griffini (Acanthamoeba griffini). Further, the 50% cytotoxic concentration (CC50) at 24 h in [2] is more than 100 µM.
The term IC90 denotes the concentration needed for an effect of 90%. In [1], `COC(=O)[C@]12CC[C@@H](C)[C@H](C)C1C1=CCC3[C@@]4(C)CC[C@H](OC)C(C)(C)C4CC[C@@]3(C)[C@]1(C)CC2` (some centres unmarked) [Compound 5] returned an IC90 of 86 µM and an IC50 of 22.7 ± 1.4 µM. Further, the IC50 in the data set with Acanthamoeba griffini (Acanthamoeba griffini) came out at 6.9 ± 1.5 µM. Also, in data set [2], the CC50 at 24 h is more than 100 µM. Moreover, in the data set on Acanthamoeba spp. cysts, the cysticidal effect result is “dose-dependent cysticidal effect”. In data set [3], the “chromatin condensation (Hoechst 33342 stain)” value was “induced chromatin condensation” and the “Propidium Iodide (PI) stain” value is on record as “did not stain”. Moreover, in data set [4], the “mitochondrial membrane potential, JC-1 imaging” value is given as “depolarize the mitochondrial membrane potential” and the “decrease of mitochondrial membrane potential (ΔΨm)” value was 49.0%. For the same molecule, the “reactive oxygen species (ROS) levels” value in the data set on Acanthamoeba Neff is recorded as “increased”. In addition, the solubility result in data set [5] was “higher than the origin compound 1”. Besides, the “effect on morphology of murine macrophages” value in [6] is on record as “did not affect the morphology”.
In the case of `COC(=O)[C@]12CC[C@@H](C)[C@H](C)C1C1=CCC3[C@@]4(C)CC[C@H](OC(=O)c5ccccc5)C(C)(C)C4CC[C@@]3(C)[C@]1(C)CC2` (some centres unmarked) [Compound 8], the IC50 in data set [1] came out at 33.5 ± 2.1 µM; in the data set on Acanthamoeba griffini (Acanthamoeba griffini) it was 11.5 ± 0.8 µM. Besides, the half-maximal cytotoxic concentration (CC50) at 24 h in data set [2] is more than 100 µM.
In turn, `[H]/N=C(\N/C(=N/[H])NCCCCCCNC(=N)NC(=N)Nc1ccc(Cl)cc1)Nc1ccc(Cl)cc1` [Chlorhexidine, reference compound] registered a 50% inhibitory concentration (IC50) with Acanthamoeba griffini (Acanthamoeba griffini) of 3.73 ± 0.98 µM. Also, in data set [2], the CC50 at 24 h is 7.4 ± 0.39 µM.
In the case of `CC(=O)O[C@H]1CC[C@@]2(C)C(CC[C@]3(C)C2CC=C2C4[C@@H](C)[C@H](C)CC[C@]4(C(=O)O)CC[C@]23C)C1(C)C` (some centres unmarked) [Compound 2], the IC50 in data set [1] worked out at 24.2 ± 0.3 µM; in the data set on Acanthamoeba griffini (Acanthamoeba griffini), 11.1 ± 0.8 µM. Besides, the CC50 at 24 h in [2] was found to be 93.2 ± 7.2 µM.
In the case of `C[C@H]1[C@H](C)CC[C@]2(C(=O)O)CC[C@]3(C)C(=CC[C@@H]4[C@@]5(C)CC[C@H](O)C(C)(C)[C@@H]5CC[C@]43C)[C@H]12` [Compound 1, Ursolic acid], the IC50 amounted to 40 ± 2.7 µM in [1], 15.3 µM in the data set with Acanthamoeba griffini (Acanthamoeba griffini) and 15.2 ± 0.3 µM with Acanthamoeba griffini. Further, in data set [2], the half-maximal cytotoxic concentration (CC50) at 24 h stood at 17.7 ± 3.3 µM.
For the molecule `COC(=O)[C@]12CC[C@@H](C)[C@H](C)C1C1=CCC3[C@@]4(C)CC[C@H](O)C(C)(C)C4CC[C@@]3(C)[C@]1(C)CC2` (some centres unmarked) [Compound 4], the half-inhibitory concentration (IC50) in data set [1] was 21.9 ± 0.9 µM; with Acanthamoeba griffini (Acanthamoeba griffini), 8.7 ± 0.4 µM. The 50% cytotoxic concentration (CC50) at 24 h in [2] was determined as 26.3 ± 1.7 µM.
For the molecule `C[C@@H]1CC[C@]2(C(=O)O)CC[C@]3(C)C(=CCC4[C@@]5(C)CCC(=O)C(C)(C)C5CC[C@]43C)C2[C@H]1C` (some centres unmarked) [Compound 3], the half-inhibitory concentration (IC50) in data set [1] stood at 34.9 ± 1.5 µM; in the data set on Acanthamoeba griffini (Acanthamoeba griffini), 10.2 ± 0.5 µM. Besides, in data set [2], the half-maximal cytotoxic concentration (CC50) at 24 h is more than 100 µM.
For `COC(=O)[C@]12CC[C@@H](C)[C@H](C)C1C1=CCC3[C@@]4(C)CC[C@H](OC(=O)c5ccc([N+](=O)[O-])cc5)C(C)(C)C4CC[C@@]3(C)[C@]1(C)CC2` (stereo partly drawn) [Compound 7, 3β-(p-nitrobenzoyloxy)-urs-12-en-28-oic acid methyl ester], in data set [1], it took 75 µM to reach the 90% level (IC90) and the 50% inhibitory concentration (IC50) was 21.4 ± 1.3 µM. In addition, in the data set on Acanthamoeba griffini (Acanthamoeba griffini), the half-maximal inhibitory concentration (IC50) was 6.7 ± 1.8 µM. Moreover, the CC50 at 24 h in [2] is more than 100 µM. Besides, the cysticidal effect entry in the data set on Acanthamoeba spp. cysts was “dose-dependent cysticidal effect”. In addition, in data set [3], the “chromatin condensation (Hoechst 33342 stain)” value is on record as “induced chromatin condensation” and the “Propidium Iodide (PI) stain” value is listed as “did not stain”. In addition, in data set [4], the “mitochondrial membrane potential, JC-1 imaging” value was “depolarize the mitochondrial membrane potential” and the “decrease of mitochondrial membrane potential (ΔΨm)” value stood at 35.0%. The “reactive oxygen species (ROS) levels” value with Acanthamoeba Neff is on record as “increased”. For the same molecule, the solubility result in data set [5] is given as “higher than the origin compound 1”.
